Measurements: patent publication US20100331315A1, “RHODANINES AND RELATED HETEROCYCLES AS KINASE INHIBITORS” (priority 2009, published 2010)
Like-named read-outs stand apart in the source and are kept apart here.

Legend:
[1] = tested on: HCT-116 human colorectal carcinoma cells; experiment: Alamar Blue cell proliferation assay, HCT-116; assay type: cell-based; details: HCT-116, Table 1, read-out: AB: HCT-116 IC50
Experimental: (§1) A representative cell-proliferation assay protocol using Alamar Blue dye (stored at 4° C., use 20 ul per well) is described hereafter.
(§2) a. Split and trypsinize cells.
(§3) b. Count cells using hemocytometer.
(§4) c. Plate 4,000-5,000 cells per well in 100 μl of medium and seed into a 96-well plate according to the following plate layout. Add cell culture medium only to wells B10 to B12. Wells B1 to B9 have cells but no compound added.
(§5) d. Add 100 μl of 2× drug dilution to each well in a concentration shown in the plate layout above. At the same time, add 100 μl of media into the control wells (wells B10 to B12). Total volume is 200 μl/well.
(§6) e. Incubate four (4) days at 37° C., 5% CO2 in a humidified incubator.
(§7) f. Add 20 μl Alamar Blue reagent to each well.
(§8) g. Incubate for four (4) hours at 37° C., 5% CO2 in a humidified incubator.
(§9) h. Record fluorescence at an excitation wavelength of 544 nm and emission wavelength of 590 nm using a microplate reader.
(§10) In the assays, cells are cultured with a test compound for approximately four days, the dye is then added to the cells and fluorescence of […] dye is detected after approximately four hours. Different types of cells can be utilized in the assays (e.g., HCT-116 human colorectal carcinoma cells, PC-3 human prostatic cancer cells and MiaPaca human pancreatic carcinoma cells).

K-562 = experiment: Alamar Blue cell proliferation assay, K-562; assay type: cell-based; details: Homo sapiens
Summary of the method: (§11)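 Alamar Blue fluorescence, excitation 544 nm and emission 590 nm, was measured in cells treated with drug for about four days at 37° C, with the dye added four hours before reading. Untreated cells and cell-free medium were included on each plate.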

MV-4-11 = experiment: Alamar Blue cell proliferation assay, MV-4-11; assay type: cell-based; details: Homo sapiens
Summary of the method: as §11

recombinant human CK2 = target: T1, recombinant human CK2 (Homo sapiens, UniProt P68400); experiment: CK2 assay (cell-free, 33P-ATP filter plate); assay type: biochemical; details: Table 5
T1 construct: purchased Upstate
Summary of the method: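 Recombinant human CK2 (25 ng) with RRRDDDSDDD peptide in MOPS pH 7.2 buffer; started with ATP/MgCl2 plus [γ-33P]ATP (75 micromolar ATP in stock solution) for 10 minutes at 30 degrees C. Acid-quenched, captured on phosphocellulose filters, and incorporated radioactivity counted by scintillation.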

recombinant PIM-1 = recombinant PIM-1 (Homo sapiens, UniProt P11309); experiment: PIM-1 assay (33P-ATP filter plate); assay type: biochemical; details: Table 5; read-out: PIM1: IC50
Summary of the method: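 Recombinant PIM-1 (1 ng) with 100 uM KKRNRTLTK, 15 uM ATP plus [γ-33P]ATP, 10 mM Mg acetate in MOPS pH 7.0, 4% DMSO. Reaction 40 min at 23° C, quenched with phosphoric acid; labeled peptide captured on phosphocellulose filter and counted by scintillation.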

recombinant human PIM2 = recombinant human PIM2 (Homo sapiens, UniProt Q9P1W9); experiment: PIM-2 assay (33P-ATP filter plate); assay type: biochemical; details: Table 5
Experimental: PIM-2 Assay Method: Test compounds dissolved and diluted in DMSO (2 μl) were added to a reaction mixture comprising 10 μl of 5× Reaction Buffer (40 mM MOPS pH 7.0, 5 mM EDTA), 10 μl of recombinant human PIM2 solution (4 ng PIM-2 dissolved in dilution buffer (20 mM MOPS pH 7.0; EDTA 1 mM; 5% Glycerol; 0.01% Brij 35; […]; […] 2-mercaptoethanol; 1 mg/ml BSA)) and 8 ul of water. Reactions were initiated by the addition of 10 ul of ATP Solution (49% (15 mM MgCl2; 75 uM ATP) 1% ([γ-^33P]ATP: Stock 1 mCi/1000; 3000Ci/mmol (Perkin Elmer)) and 10 ul of substrate peptide solution (RSRSSYPAGT, dissolved in water at a concentration of 1 mM), Reactions were maintained for 10 min at 30° C. The reactions were quenched with 100 ul of 0.75% Phosphoric acid, then transferred to and filtered through a Phosphocellulose filter plate (Millipore, MSPH-N6B-50). After washing each well 4 times with 0.75% Phosphoric acid, scintillation fluid (20 uL) was added to each well and the residual radioactivity was measured using a Wallac luminescence counter.

BxPC3 = experiment: Alamar Blue cell proliferation assay, BxPC3; assay type: cell-based; details: Homo sapiens, BXPC-3, BxPC3, Table 5, read-out: AB: BxPC3 IC50
Experimental: as §1, §2, §3, §4, §5, §6, §7, §8, §9, §10

MDAMB453 = experiment: Alamar Blue cell proliferation assay, MDAMB453; assay type: cell-based; details: Homo sapiens, MDA-MB-453, MDAMB453, Table 5, read-out: AB: MDAMB453 IC50
Experimental: as §1, §2, §3, §4, §5, §6, §7, §8, §9, §10

SUM-149PT = experiment: Alamar Blue cell proliferation assay, SUM-149PT; assay type: cell-based; details: Homo sapiens, SUM149PT, Table 5, read-out: AB: SUM-149PT IC50
Experimental: as §1, §2, §3, §4, §5, §6, §7, §8, §9, §10

[2] = tested on: leukemic cells from AML patients; details: Fedorov et al., PNAS 104(51); cited from earlier work
MV-4-11 (AML) xenograft = MV-4-11 (AML) xenograft model; 2008 AACR Abstract No. 4974; cited from earlier work
MOLM-13 (AML) xenograft = MOLM-13 (AML) xenograft model; 2008 AACR Abstract No. 4974; cited from earlier work
[3] = K562, K-562, Table 5, read-out: AB: K-562 IC50
[4] = MV4-11, MV-4-11, Table 5, read-out: AB: MV-4-11 IC50

T1 sequence (P68400 whole entry): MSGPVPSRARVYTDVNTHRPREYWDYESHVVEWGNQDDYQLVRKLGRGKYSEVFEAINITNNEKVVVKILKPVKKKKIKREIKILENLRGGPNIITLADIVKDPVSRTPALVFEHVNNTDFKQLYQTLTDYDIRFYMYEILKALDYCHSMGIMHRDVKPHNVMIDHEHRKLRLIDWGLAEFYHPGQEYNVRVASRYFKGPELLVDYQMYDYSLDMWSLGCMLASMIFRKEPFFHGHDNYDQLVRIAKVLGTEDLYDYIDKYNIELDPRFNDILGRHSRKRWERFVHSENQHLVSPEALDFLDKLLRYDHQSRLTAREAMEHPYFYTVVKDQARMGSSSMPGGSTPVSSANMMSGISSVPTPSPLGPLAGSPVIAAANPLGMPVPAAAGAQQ
T1 sequence (P67870 whole entry partner): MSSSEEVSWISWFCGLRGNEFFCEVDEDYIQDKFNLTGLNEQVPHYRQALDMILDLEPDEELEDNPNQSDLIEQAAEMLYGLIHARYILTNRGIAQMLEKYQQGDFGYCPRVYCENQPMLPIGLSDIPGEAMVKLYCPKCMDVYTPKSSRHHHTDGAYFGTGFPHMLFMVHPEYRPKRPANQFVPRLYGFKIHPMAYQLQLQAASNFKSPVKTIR
Chain of recombinant human PIM2 (Q9P1W9 whole entry): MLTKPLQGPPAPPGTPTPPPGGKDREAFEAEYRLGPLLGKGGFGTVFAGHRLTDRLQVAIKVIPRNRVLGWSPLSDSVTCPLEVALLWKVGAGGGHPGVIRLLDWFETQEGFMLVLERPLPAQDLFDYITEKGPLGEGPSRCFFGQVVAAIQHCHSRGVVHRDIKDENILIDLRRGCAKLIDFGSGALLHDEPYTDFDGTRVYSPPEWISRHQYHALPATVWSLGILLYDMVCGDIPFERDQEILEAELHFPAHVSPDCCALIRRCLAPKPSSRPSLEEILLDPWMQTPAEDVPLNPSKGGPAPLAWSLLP
Chain of recombinant PIM-1 (P11309 whole entry): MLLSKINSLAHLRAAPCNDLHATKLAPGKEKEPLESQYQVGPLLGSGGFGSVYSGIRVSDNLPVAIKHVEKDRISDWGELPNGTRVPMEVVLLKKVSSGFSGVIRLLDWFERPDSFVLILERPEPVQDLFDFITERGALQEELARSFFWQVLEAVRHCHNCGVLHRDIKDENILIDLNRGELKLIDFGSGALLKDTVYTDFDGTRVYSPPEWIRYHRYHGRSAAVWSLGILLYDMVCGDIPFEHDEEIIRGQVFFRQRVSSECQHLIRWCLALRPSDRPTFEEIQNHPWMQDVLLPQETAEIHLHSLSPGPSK

Compound: O=C(O)c1cccc(-c2ccc(/C=C3\SC(=S)N(Cc4ccccc4)C3=O)o2)c1
- IC50 [1]: > 10000 nM

Compound: CN1C(=O)/C(=C/c2ccc(-c3cccc(C(=O)O)c3)o2)SC1=S
- IC50 [1]: > 10000 nM

Compound: O=C1NC(=S)S/C1=C\c1ccc(-c2cccc(C(=O)O)c2)o1
- IC50 [1]: > 10000 nM
- IC50 (K-562; K562, K-562, Table 1, read-out: AB: K-562 IC50): > 10000 nM
- IC50 (MV-4-11; MV4-11, MV-4-11, Table 1, read-out: AB: MV-4-11 IC50): > 10000 nM

Compound: O=C1NC(=O)/C(=C\c2ccc(F)c(-c3cncc(N4CCCNCC4)n3)c2)S1
- IC50 (recombinant human CK2): < 50 nM
- IC50 (recombinant PIM-1): < 50 nM
- IC50 (recombinant human PIM2): < 50 nM
- IC50 (K-562; [3]): 2910 nM
- IC50 (MV-4-11; [4]): 1020 nM
- IC50 (BxPC3): 4360 nM
- IC50 (MDAMB453): 1240 nM
- IC50 (SUM-149PT): 2350 nM

Compound: CN1CCCN(c2cncc(-c3cc(/C=C4\SC(=S)NC4=O)ccc3F)n2)CC1
- IC50 (recombinant human CK2): < 50 nM
- IC50 (recombinant PIM-1): < 50 nM
- IC50 (recombinant human PIM2): 50 nM
- IC50 (K-562; [3]): 186 nM
- IC50 (MV-4-11; [4]): 163 nM
- IC50 (BxPC3): 2380 nM
- IC50 (MDAMB453): 521 nM
- IC50 (SUM-149PT): 315 nM

Compound: CN1CCCN(c2cncc(-c3cc(/C=C4\SC(=O)NC4=O)ccc3Cl)n2)CC1
- IC50 (recombinant human CK2): 92.1 nM
- IC50 (recombinant PIM-1): < 50 nM
- IC50 (recombinant human PIM2): < 50 nM
- IC50 (K-562; [3]): > 30000 nM
- IC50 (MV-4-11; [4]): 3010 nM
- IC50 (BxPC3): > 30000 nM
- IC50 (MDAMB453): 18400 nM
- IC50 (SUM-149PT): > 30000 nM

Compound: CN1CCCN(c2cncc(-c3cc(/C=C4\SC(=O)NC4=O)ccc3F)n2)CC1
- IC50 (recombinant human CK2): < 50 nM
- IC50 (recombinant PIM-1): < 50 nM
- IC50 (recombinant human PIM2): < 50 nM
- IC50 (K-562; [3]): 267 nM
- IC50 (MV-4-11; [4]): 197 nM
- IC50 (BxPC3): 6710 nM
- IC50 (MDAMB453): 1180 nM
- IC50 (SUM-149PT): 1550 nM

Compound: CN1CCCN(c2cncc(-c3cncc(/C=C4\SC(=O)NC4=O)c3)n2)CC1
- IC50 (recombinant human CK2): 10.6 nM
- IC50 (recombinant PIM-1): < 50 nM
- IC50 (recombinant human PIM2): < 50 nM
- IC50 (K-562; [3]): > 10000 nM
- IC50 (MV-4-11; [4]): 9350 nM
- IC50 (BxPC3): > 30000 nM
- IC50 (MDAMB453): 28300 nM
- IC50 (SUM-149PT): > 30000 nM

Compound: Cc1ccc(-c2cncc(N3CCCN(C)CC3)n2)cc1/C=C1\SC(=S)NC1=O
- IC50 (recombinant human CK2): < 50 nM
- IC50 (recombinant PIM-1): < 50 nM
- IC50 (recombinant human PIM2): < 50 nM
- IC50 (K-562; [3]): 9700 nM
- IC50 (MV-4-11; [4]): 2200 nM
- IC50 (BxPC3): 16300 nM
- IC50 (MDAMB453): 22200 nM
- IC50 (SUM-149PT): 25700 nM

Compound: Cc1ccc(-c2cncc(N3CCCN(C)CC3)n2)cc1/C=C1\SC(=O)NC1=O
- IC50 (recombinant human CK2): 50 nM
- IC50 (recombinant PIM-1): < 50 nM
- IC50 (recombinant human PIM2): 50 nM
- IC50 (K-562; [3]): 6540 nM
- IC50 (MV-4-11; [4]): 3750 nM
- IC50 (BxPC3): 25800 nM
- IC50 (MDAMB453): 15500 nM
- IC50 (SUM-149PT): 8700 nM

Compound: CC(C)(C)CC(=O)N1CCCN(c2cncc(-c3cc(/C=C4/SC(=O)NC4=O)ccc3F)n2)CC1
- IC50 (recombinant human CK2): < 50 nM
- IC50 (recombinant human PIM2): < 50 nM
- IC50 (K-562; [3]): 1210 nM
- IC50 (MV-4-11; [4]): 3230 nM
- IC50 (BxPC3): 10200 nM
- IC50 (MDAMB453): 2760 nM
- IC50 (SUM-149PT): 1460 nM

Compound: O=C1NC(=O)/C(=C\c2ccc(F)c(-c3cncc(N4CCCN(C(=O)c5ccccc5F)CC4)n3)c2)S1
- IC50 (recombinant human CK2): < 50 nM
- IC50 (recombinant human PIM2): < 50 nM
- IC50 (K-562; [3]): 1600 nM
- IC50 (MV-4-11; [4]): 3110 nM
- IC50 (BxPC3): 20000 nM
- IC50 (MDAMB453): 2690 nM
- IC50 (SUM-149PT): 2610 nM

Compound: O=C1NC(=O)/C(=C\c2ccc(F)c(-c3cncc(N4CCCN(C(=O)OCc5ccccc5)CC4)n3)c2)S1
- IC50 (recombinant human CK2): < 50 nM
- IC50 (recombinant human PIM2): < 50 nM
- IC50 (K-562; [3]): 2570 nM
- IC50 (MV-4-11; [4]): 3490 nM
- IC50 (BxPC3): 24900 nM
- IC50 (MDAMB453): 3980 nM
- IC50 (SUM-149PT): 8280 nM

Compound: O=C1NC(=O)/C(=C\c2ccc(F)c(-c3cncc(N4CCCN(C(=O)Oc5ccccc5)CC4)n3)c2)S1
- IC50 (recombinant human CK2): < 50 nM
- IC50 (recombinant human PIM2): < 50 nM
- IC50 (K-562; [3]): 9370 nM
- IC50 (MV-4-11; [4]): 6300 nM
- IC50 (BxPC3): 24000 nM
- IC50 (MDAMB453): 3810 nM
- IC50 (SUM-149PT): 6690 nM

Compound: COC(=O)N1CCCN(c2cncc(-c3cc(/C=C4/SC(=O)NC4=O)ccc3F)n2)CC1
- IC50 (recombinant human CK2): < 50 nM
- IC50 (recombinant human PIM2): < 50 nM
- IC50 (K-562; [3]): 3650 nM
- IC50 (MV-4-11; [4]): 2520 nM
- IC50 (BxPC3): 18900 nM
- IC50 (MDAMB453): 3590 nM
- IC50 (SUM-149PT): 2050 nM

Compound: O=C1NC(=O)/C(=C\c2ccc(F)c(-c3cncc(N4CCCN(C(=O)Nc5ccccc5)CC4)n3)c2)S1
- IC50 (recombinant human CK2): < 50 nM
- IC50 (recombinant human PIM2): < 50 nM
- IC50 (K-562; [3]): 4300 nM
- IC50 (MV-4-11; [4]): > 10000 nM
- IC50 (BxPC3): 18800 nM
- IC50 (MDAMB453): 10000 nM
- IC50 (SUM-149PT): 6150 nM

Compound: CN(C)C[C@@H]1CCn2cc(c3ccccc32)C2=C(C(=O)NC2=O)c2cn(c3ccccc23)CCO1 [Ly5333′531]
- effect on cell growth and cell death [2]: suppressed cell growth and induced cell death

Compound: CN1CCC(CNc2ccc3ncc(-c4cccc(OC(F)(F)F)c4)n3n2)CC1 [SGI-1776]
- tumor regression (MV-4-11 (AML) xenograft): significant tumor regression
- tumor regression (MOLM-13 (AML) xenograft): significant tumor regression
